# “Also recorded” adds a separate entry of the source. Read-outs that look alike come from different tables or passages of the source.
# How the values were obtained:
# PARP1 = PARP1 cleavage, western blot in HSC-2 cells; assay type: cell-based, human; conditions: 0.5 µM, 24 h
# Method: (§1) Antibodies against cleaved PARP1, bim, bax, puma, and bak were obtained from Cell Signaling Technology (Beverley, MA, USA) while the anti-actin antibody was purchased from Santa Cruz Biotechnology (Santa Cruz, CA, USA).
# (§2) The HSC-2 cells were cultured for 24 h and, then, treated with 0.5 µM of 3b or 3c for 24 h. The cells were scraped and collected in lysis buffer (purchased from Cell Signaling Technology), which contained 1 mM of phenylmethanesulfonyl fluoride and one tablet of protease inhibitor cocktail (Complete, EDTA-free; Roche Diagnostics, Mannheim, Germany). The proteins were subjected to 8% SDS-polyacrylamide gel electrophoresis and, then, transferred to a polyvinylidene difluoride membrane saturated with 5% nonfat dry milk. The membranes were incubated with rabbit monoclonal anti-cleaved PARP (Cell Signaling Technology, Beverly, MA, USA; #9541, 1:1000), or beta-actin antibody (Sigma-Aldrich, St Louis, MO, USA; A5441, 1:10,000) for 1 h at room temperature. The membranes were washed with Tris-buffered saline containing 0.1% Tween 80. And, the secondary antibodies were horseradish peroxidase-conjugated goat antimouse or antirabbit, which reacted with the chemoluminescent substrate system and were exposed to X-ray films.
# bim, bax, puma, and bak = assay: Pro-apoptotic proteins bim, bax, puma, bak in HSC-2 cells; assay type: cell-based, human; conditions: 24 h, data not shown
# Method: as §1, §2
# [1] = tested on: human tumour cell lines HL-60, HSC-2, HSC-3, HSC-4; assay: Cytotoxicity, average over the four human tumour cell lines; assay type: cell-based; conditions: for CC50: Homo sapiens, read-out: AVE. CC50, human tumour cell lines; for AVE SI: average of the four SI values
# Method: (§3) Human promyelocytic leukemia [HL-60 (RCB3683)] (purchased from Riken Cell Bank, Tsukuba, Japan) was cultured at 37 °C in RPMI1640 medium (Fujifilm Wako Pure Chemical Co., Osaka, Japan) supplemented with 10% heat (56 °C, 30 min) inactivated FBS (Sigma-Aldrich Inc. St. Louis, MO, USA), 100 U/mL penicillin G, and 100 µg/mL streptomycin sulfate in a humidified 5% CO2 incubator (MCO-170 AICUVD-P, Panasonic Healthcare Co., Ltd., Gunma, Japan). Human oral squamous cell carcinoma (OSCC) cell lines derived from tongue [HSC-2 (RCB1945), HSC-3 (RCB1975), HSC-4 (RCB1902)] (Riken Cell Bank), and human normal oral cells (gingival fibroblasts, HGF; pulp cell, HPC; periodontal ligament fibroblast, HPLF), established from the first premolar extracted tooth in the lower jaw and periodontal tissues of a child, according to the guidelines of Meikai University Ethic Committee (No. A0808), were cultured in DMEM medium (Fujifilm Wako Pure Chemical Co.) supplemented with 10% FBS and antibiotics. The compounds in Series 2–4 were evaluated against HL-60, HSC-2, HSC-3, HSC-4, HGF, HPC, and HPLF cells based on a literature procedure, as described previously. In brief, near confluent cells were incubated in triplicate for 48 h at 37 °C with different concentrations ([…], 6.3, 12.5, 25, 50, 100 µM) of the compounds; then, viable cell numbers were measured using the MTT method. From the dose–response curve, a 50% cytotoxic concentration (CC50) was determined. All samples were dissolved in dimethylsulfoxide (DMSO). The toxicity of DMSO alone was calculated and subtracted. The CC50 values were determined from dose–response curves.
# [2] = Cytotoxicity, MTT method, HPLF non-malignant cells; assay type: cell-based, human; conditions: human, periodontal ligament fibroblasts (HPLF), non-malignant, mean ± SD
# Method: as §3
# [3] = Cytotoxicity, MTT method, HGF non-malignant cells; assay type: cell-based, human; conditions: human, gingival fibroblasts (HGF), non-malignant, mean ± SD
# Method: as §3
# [4] = tested on: human oral squamous cell carcinoma HSC-2 cells; assay: Cytotoxicity, MTT method, HSC-2 cells; assay type: cell-based; conditions: for CC50: Homo sapiens, read-out: CC50 HSC-2; for SI (selectivity index) HSC-2: average CC50 non-malignant cells / CC50 HSC-2
# Method: as §3
# [5] = tested on: human oral squamous cell carcinoma HSC-4 cells; assay: Cytotoxicity, MTT method, HSC-4 cells; assay type: cell-based; conditions: for CC50: Homo sapiens, read-out: CC50 HSC-4; for SI (selectivity index) HSC-4: average CC50 non-malignant cells / CC50 HSC-4
# Method: as §3
# [6] = tested on: human oral squamous cell carcinoma HSC-3 cells; assay: Cytotoxicity, MTT method, HSC-3 cells; assay type: cell-based; conditions: for CC50: Homo sapiens, read-out: CC50 HSC-3; for SI (selectivity index) HSC-3: average CC50 non-malignant cells / CC50 HSC-3
# Method: as §3
# [7] = tested on: human promyelocytic leukemia HL-60 cells; assay: Cytotoxicity, MTT method, HL-60 cells; assay type: cell-based; conditions: for CC50: Homo sapiens, read-out: CC50 HL-60; for SI (selectivity index) HL-60: average CC50 non-malignant cells / CC50 HL-60
# Method: as §3
# HSC-2 cells = assay: Cell cycle analysis of HSC-2 cells; assay type: cell-based, human; conditions: 0.5 µM, 24 h
# Method: The effect of 3b (0.5 µM) and 3c (0.5 µM) on the phase distribution of HSC-2 cells after 24 h of incubation was determined using the protocol of a manufacturer (BD Pharmingen, BD BioSciences, San Jose, CA, USA). In brief, treated and untreated cells were suspended at a density of ~1 × 10^6 cells/mL in cooled phosphate-buffered saline (PBS) without calcium and magnesium ions and fixed with 70% ethanol overnight at −20 °C. The cells were washed with cooled PBS and re-suspended in a propidium iodide/RNase staining buffer in the dark at room temperature for 0.25 h. Both acquisition and analysis were performed using EPICS ALTRA (Beckman Coulter, Brea, CA, USA) and EXPO 32 software.
# [8] = Cytotoxicity, average over the three human normal cells; assay type: cell-based; conditions: human, average of HGF, HPC, HPLF; read-out: AVE CC50, human normal cells
# Method: as §3
# HCT116 cells [9] = assay: Reactive oxygen species determination in HCT116 cells; assay type: cell-based, human; conditions: for Generation of reactive oxygen species (ROS): 48 h, dichlorofluorescein fluorescence
# Method: The determination of the effects of 3b, 3c, and 5-FU on the generation of reactive oxygen species in HCT 116 cells was accomplished using a literature procedure. In brief, the cells were incubated at 37 °C in an atmosphere of 5% carbon dioxide for 24 h. Subsequently, solutions of the compounds in DMSO were added to the cells, which were incubated for 48 h. After 2′,7′-dichlorofluorescein was added to the cells, incubation continued for another 0.5 h and the fluorescence of the cells was measured spectrophotometrically (excitation wavelength 485 nm; emission wavelength, 530 nm).
# caspases-3 and -7 = assay: Caspase-Glo 3/7 assay in HSC-2 cells; assay type: cell-based, human; conditions: 0.5 µM, 24 h
# Method: Both 3b (0.5 µM) and 3c (0.5 µM) were examined for their ability to activate caspases-3 and -7 in HSC cells. This determination was accomplished using the Caspase-Glo 3/7 assay (Promega Corporation, Madison, WI, USA). In brief, this assay uses a tetrapeptide sequence DEVD, which is optimized for caspase and luciferase activities. The cell lysate was incubated with the Caspase-Glo reagent (buffer and substrate) for 1 h and the luminescence was measured. The resultant luminescent signal produced by luciferase was confirmed to be proportional to the amount of caspase-3 and -7 activity.
# HCT116 cells [10] = assay: Mitochondrial membrane potential determination in HCT116 cells; assay type: cell-based, human; conditions: 48 h, tetramethylrhodamine ethyl ester
# Method: The determination of the IC50 values of 3b, 3c, and 5-FU on the mitochondrial membrane potential in HCT 116 cells was undertaken using a literature procedure. In brief, the cells were incubated at 37 °C in an atmosphere of 5% carbon dioxide for 24 h. The compounds were dissolved in DMSO, added to the cells, and incubated for 48 h. Then, […], and 2,4-dinitrophenol (DNP) were added to the cells, which were incubated for 0.5 h. After the addition of tetramethylrhodamine ethyl ester, the fluorescence of the cells was determined using a plate reader.
# [11] = Cytotoxicity, MTT method, HPC non-malignant cells; assay type: cell-based, human; conditions: human, pulp cells (HPC), non-malignant, mean ± SD
# Method: as §3
# [12] = tested on: human periodontal ligament fibroblasts (HPLF); assay: Cytotoxicity, MTT method, HPLF non-malignant cells; assay type: cell-based; conditions: 48 h, mean ± SD
# Method: as §3
# [13] = tested on: human gingival fibroblasts (HGF); assay: Cytotoxicity, MTT method, HGF non-malignant cells; assay type: cell-based; conditions: 48 h, mean ± SD
# Method: as §3
# [14] = tested on: human normal cells HGF, HPC, HPLF; assay: Cytotoxicity, average over the three human normal cells; assay type: cell-based; conditions: average of HGF, read-out: AVE CC50, human normal cells
# Method: as §3
# human pulp cells (HPC) = assay: Cytotoxicity, MTT method, HPC non-malignant cells; assay type: cell-based; conditions: 48 h, mean ± SD
# Method: as §3
# [15] = average of HL-60, HSC-2, HSC-3, HSC-4
SMILES,Cleavage of PARP1 (PARP1),"Effect on pro-apoptotic proteins bim, bax, puma, bak (bim, bax, puma, and bak)","CC50 [1, 15]",AVE SI [1],CC50 at 48 h [2],CC50 at 48 h [3],"CC50 ([4]; HSC-2, 48 h, MTT, mean ± SD)",SI (selectivity index) HSC-2 [4],"CC50 ([5]; HSC-4, 48 h, MTT, mean ± SD)",SI (selectivity index) HSC-4 [5],"CC50 ([6]; HSC-3, 48 h, MTT, mean ± SD)",SI (selectivity index) HSC-3 [6],"CC50 ([7]; HL-60, 48 h, MTT, mean ± SD)",SI (selectivity index) HL-60 [7],Cell cycle effect (HSC-2 cells),CC50 at 48 h [8],Generation of reactive oxygen species (ROS) (HCT116 cells [9]),Induction of caspases-3 and -7 (caspases-3 and -7),Effect on mitochondrial membrane potential (MMP) (HCT116 cells [10]),CC50 at 48 h [11],also measured
O=C1/C(=C/c2ccc(F)cc2)CN(C(=O)CC(=O)N2C/C(=C\c3ccc(F)cc3)C(=O)/C(=C/c3ccc(F)cc3)C2)C/C1=C\c1ccc(F)cc1 [Compound 3b],causing the cleavage of PARP; also recorded: leads to the cleavage of PARP1,no changes in the concentrations of these proteins were observed,0.04 µM,133,5.7 ± 0.67 µM,3.8 ± 0.71 µM,0.041 ± 0.004 µM,103,0.023 ± 0.003 µM,184,0.046 ± 0.011 µM,92.0,0.028 ± 0.001 µM,151,G2M arrest in the cell cycle; also recorded: causes a G2/M arrest,4.23 µM,cause an increase in the ROS concentrations,induced caspases-3 and -7,huge effect on lowering the MMP,3.2 ± 1.1 µM,"CC50 values in all four bioassays (range in words) ([1]; HL-60, HSC-2, HSC-3, HSC-4): double-digit nanomolar range; ROS generation, potency relative to 3c (HCT116 cells [9]): approximately twice the potency of 3c"
O=C1/C(=C/c2ccc(Cl)cc2)CN(C(=O)CC(=O)N2C/C(=C\c3ccc(Cl)cc3)C(=O)/C(=C/c3ccc(Cl)cc3)C2)C/C1=C\c1ccc(Cl)cc1 [Compound 3c],does not exert these effects,no changes in the concentrations of these proteins were observed,7.25 µM,6.62,45 ± 11 µM,41 ± 2.5 µM,5.5 ± 0.65 µM,7.51,5.5 ± 0.96 µM,7.51,13 ± 2.2 µM,3.18,5 ± 0.76 µM,8.26,does not exert these effects,41.3 µM,cause an increase in the ROS concentrations,does not exert these effects,no effect at the concentrations utilized,38 ± 8.7 µM,
"N[C@@H](Cc1ccc(N(CCCl)CCCl)cc1)C(=O)O [Melphalan, reference compound]",,,,21.0,,,,5.61,,1.46,,1.46,,75.6,,> 50 µM,,,,,"CC50 [1]: 26.2 µM; CC50 [12]: 92 ± 7.8 µM; CC50 [13]: 73 ± 15 µM; CC50 ([4]; HSC-2, 48 h): 12 ± 2.7 µM; CC50 ([5]; HSC-4, 48 h): 46 ± 6 µM; CC50 ([6]; HSC-3, 48 h): 46 ± 31 µM; CC50 ([7]; HL-60, 48 h): 0.89 ± 0.17 µM; CC50 [14]: 67.3 µM; CC50 (human pulp cells (HPC)): 37 ± 7.3 µM"

# From publication PMC10821124, “Dimeric 3,5-Bis(benzylidene)-4-piperidones: Tumor-Selective Cytotoxicity and Structure-Activity Relationships” (Medicines, 2024)
